Assay results reported in patent US8916599B2, “1H-benz imidazole-5-carboxamides as anti-inflammatory agents” (Orexo AB, priority 2008, dated 2014).

The compounds below were run against T1, recombinant human mPGES-1 (Homo sapiens, UniProt O14684) (assay: mPGES-1 inhibition test (microsomes, PGH2 substrate, HTRF detection of PGE2)). Conditions: inhibition of mPGES-1 at 1 μM (marked in cell).
T1 construct: made in house; host or cells: Rosetta E. coli (microsomal/membrane fraction)
T1 sequence (O14684 1-152): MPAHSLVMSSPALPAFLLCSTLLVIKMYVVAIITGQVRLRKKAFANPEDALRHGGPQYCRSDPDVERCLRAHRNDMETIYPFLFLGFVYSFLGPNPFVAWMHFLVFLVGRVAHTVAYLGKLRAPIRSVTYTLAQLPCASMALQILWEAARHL
Assay type: biochemical
Summary of the method: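 PGE2 formed from PGH2 in one minute by E. coli-expressed microsomal enzyme (pH 7.4, 2.5 mM GSH) was measured by competitive HTRF against a synthetic PGE2 standard curve. Compounds were preincubated 25 min at room temperature.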

Row | inhibition at 1 µM | Structure (SMILES)
1 | 99% | CCOc1cc2[nH]c(Nc3c(Cl)ccc(Cl)c3F)nc2cc1C(=O)NC1CCC2(CC1)CC2 [Example 646, 2-(3,6-Dichloro-2-fluoro-phenylamino)-6-ethoxy-N-(spiro[2.5]oct-6-yl)-1H-benzimidazole-5-carboxamide]
2 | 100% | O=C(Nc1cccc(Br)c1)c1ccc2[nH]c(Nc3c(Cl)cccc3Cl)nc2c1 [Example 69, 2-(2,6-Dichloro-phenylamino)-1H-benzimidazole-5-carboxylic acid (3-bromo-phenyl)-amide]
3 | 95% | O=C(Nc1ccc(F)c(Cl)c1)c1ccc2[nH]c(Nc3c(Cl)cccc3Cl)nc2c1 [Example 71, 2-(2,6-Dichloro-phenylamino)-1H-benzimidazole-5-carboxylic acid (3-chloro-4-fluoro-phenyl)-amide]

Same assay, conditions: inhibition of mPGES-1 at 10 μM

Row | Structure (SMILES) | inhibition at 10 µM
4 | Cc1ccc(NC(=O)c2ccc3[nH]c(Nc4c(Cl)cccc4Cl)nc3c2)cc1 [Example 5, 2-(2,6-Dichloro-phenylamino)-1H-benzimidazole-5-carboxylic acid p-tolylamide] | 100%
5 | Cn1c(Nc2c(F)cccc2F)nc2cc(C(=O)N[C@H]3CC[C@H](C(F)(F)F)CC3)ccc21 [Example 171, 2-(2,6-Difluoro-phenylamino)-1-methyl-1H-benzimidazole-5-carboxylic acid (trans-4-trifluoromethyl-cyclohexyl)-amide] | 94%
6 | O=C(N[C@H]1CC[C@H](C(F)(F)F)CC1)c1cc2nc(Nc3c(Cl)cc(F)cc3Cl)[nH]c2cc1OCC(F)F [Example 587, 2-(2,6-Dichloro-4-fluoro-phenylamino)-N-(trans-4-trifluoromethyl-cyclohex-1-yl)-6-(2,2-difluoroethoxy)-1H-benzimidazole-5-carboxamide] | 97%
7 | Cc1ccc(NC(=O)c2ccc3[nH]c(Nc4c(Cl)cccc4Cl)nc3c2)nc1 [Example 321, 2-(2,6-Dichloro-phenylamino)-1H-benzimidazole-5-carboxylic acid (5-methyl-pyridin-2-yl)-amide] | 93%
8 | Cn1c(Nc2cc(C(=O)O)ccc2Cl)nc2cc(C(=O)Nc3ccc(Br)cc3)ccc21 [Example 573, 3-(5-(4-Bromophenylcarbamoyl)-1-methyl-1H-benzimidazol-2-yl-amino)-4-chlorobenzoic acid] | 60%
9 | CCOc1cc2[nH]c(Nc3c(Cl)ccc(Cl)c3F)nc2cc1C(=O)Nc1ccc(Br)cc1 [Example 604, 2-(3,6-Dichloro-2-fluoro-phenylamino)-N-(4-bromo-phenyl)-6-ethoxy-1H-benzimidazole-5-carboxamide] | 100%
10 | O=C(NCC1CCCC1)c1ccc2[nH]c(Nc3c(Cl)cccc3Cl)nc2c1 [Example 219, 2-(2,6-Dichloro-phenylamino)-1H-benzimidazole-5-carboxylic acid cyclopentylmethyl-amide] | 100%
11 | Cc1cc(NC(=O)c2ccc3[nH]c(Nc4c(Cl)cccc4Cl)nc3c2)ncc1Cl [Example 89, 2-(2,6-Dichloro-phenylamino)-1H-benzimidazol-5-carboxylic acid (5-chloro-4-methyl-pyridin-2-yl)-amide] | 97%
12 | Cn1c(Nc2c(Cl)cccc2Cl)nc2cc(C(=O)NCc3cccc(C(F)(F)F)n3)ccc21 [Example 247, 2-(2,6-Dichloro-phenylamino)-1-methyl-1H-benzimidazole-5-carboxylic acid (6-trifluoromethyl-pyridin-2-ylmethyl)-amide] | 92%
13 | CS(=O)(=O)NCCCn1c(Nc2c(Cl)cccc2Cl)nc2cc(C(=O)Nc3cc(Cl)ccn3)ccc21 [Example 206, 2-(2,6-Dichloro-phenylamino)-1-(3-methanesulfonylamino-propyl)-1H-benzimidazole-5-carboxylic acid (4-chloro-pyridin-2-yl)-amide] | 100%
14 | O=C(Nc1ccc(Br)cc1)c1ccc2[nH]c(Nc3c(F)cccc3Cl)nc2c1 [compound 334] | 100%
15 | O=C(NCCc1ccncc1)c1ccc2[nH]c(Nc3c(Cl)cccc3Cl)nc2c1 [Example 233, 2-(2,6-Dichloro-phenylamino)-1H-benzimidazole-5-carboxylic acid (2-pyridin-4-yl-ethyl)-amide] | 67%
16 | O=C(Nc1ccc(Cl)cn1)c1ccc2[nH]c(Nc3c(Cl)cccc3Cl)nc2c1 [Example 74, 2-(2,6-Dichloro-phenylamino)-1H-benzimidazole-5-carboxylic acid (5-chloro-pyridin-2-yl)-amide] | 97%
17 | Cn1c(Nc2cc(C(N)=O)ccc2Cl)nc2cc(C(=O)Nc3ccc(Br)cc3)ccc21 [Example 537, N-(4-Bromophenyl)-2-(5-carbamoyl-2-chlorophenylamino)-1-methyl-1H-benzimidazole-5-carboxamide] | 99%

Results, then the compound that gave them:

Row | inhibition at 10 µM | Structure (SMILES)
18 | 100% | Cc1cnc(CNC(=O)c2cc3nc(Nc4c(Cl)cccc4Cl)n(C)c3cc2F)c(C)c1 [Example 470, 2-(2,6-Dichlorophenylamino)-N-((3,5-dimethylpyridin-2-yl)methyl)-6-fluoro-1-methyl-1H-benzimidazole-5-carboxamide]
19 | 92% | Cn1c(Nc2c(Cl)ccc(Cl)c2F)nc2cc(C(=O)N[C@H]3CC[C@H](C(F)(F)F)CC3)c(F)cc21 [Example 601, 2-(3,6-Dichloro-2-fluoro-phenylamino)-6-fluoro-N-(trans-4-trifluoromethyl-cyclohex-1-yl)-1-methyl-1H-benzimidazole-5-carboxamide]
20 | 98% | Cn1c(Nc2c(Cl)cccc2Cl)nc2cc(C(=O)NC3CCCCC3)ccc21 [compound 317]
21 | 100% | Cn1c(Nc2c(F)cccc2Cl)nc2cc(C(=O)NCCCC3CC3)c(F)cc21 [Example 390, 2-(2-Chloro-6-fluorophenylamino)-N-(3-cyclopropylpropyl)-6-fluoro-1-methyl-1H-benzimidazole-5-carboxamide]
22 | 96% | CC1CCC(NC(=O)c2ccc3c(c2)nc(Nc2c(Cl)cccc2Cl)n3C)CC1 (centres unmarked) [Example 239, 2-(2,6-Dichloro-phenylamino)-1-methyl-1H-benzimidazole-5-carboxylic acid (4-methyl-cyclohexyl)-amide]
23 | 100% | CCC1CCC(NC(=O)c2cc3nc(Nc4c(F)cccc4Cl)n(C)c3cc2F)C1 (centres unmarked) [Example 392, 2-(2-Chloro-6-fluorophenylamino)-N-(3-ethylcyclopentyl)-6-fluoro-1-methyl-1H-benzimidazole-5-carboxamide]
24 | 71% | Cn1c(Nc2c(Cl)cccc2Cl)nc2cc(C(=O)NCC3CCCOC3)ccc21 (centres unmarked) [Example 251, 2-(2,6-Dichloro-phenylamino)-1-methyl-1H-benzimidazole-5-carboxylic acid (tetrahydro-pyran-3-ylmethyl)-amide]
25 | 95% | Cn1c(Nc2c(Cl)cccc2Cl)nc2cc(C(=O)NCCC3CC3)c(F)cc21 [Example 484, N-(2-Cyclopropylethyl)-2-(2,6-dichlorophenylamino)-6-fluoro-1-methyl-1H-benzimidazole-5-carboxamide]
26 | 98% | Cn1c(Nc2c(Cl)cccc2Cl)nc2cc(C(=O)NC3CCCCC3)c(F)cc21 [Example 159, 2-(2,6-Dichloro-phenylamino)-6-fluoro-1-methyl-1H-benzimidazole-5-carboxylic acid cyclohexylamide]
